Measurements: PubChem BioAssay (NCI)
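Method: 48-hour compound exposure of cells in 96-well plates, five concentrations, linear interpolation of endpoints. TGI is the concentration that stops growth completely.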

Assays:
Assay in all cases: NCI tumour cell line growth inhibition, 48 h
[1] = test system: 786-0 renal
[2] = test system: A498 renal
[3] = test system: A549 NSCLC
[4] = test system: ACHN renal
[5] = test system: BT-549 breast
[6] = test system: CAKI-1 renal
[7] = test system: CCRF-CEM leukemia
[8] = test system: COLO 205 colon
[9] = test system: DU-145 prostate
[10] = test system: EKVX NSCLC
[11] = test system: HCC-2998 colon
[12] = test system: HCT-116 colon
[13] = test system: HCT-15 colon
[14] = test system: HL-60(TB) leukemia
[15] = test system: HOP-62 NSCLC
[16] = test system: HOP-92 NSCLC
[17] = test system: HS 578T breast
[18] = test system: HT29 colon
[19] = test system: IGROV1 ovarian
[20] = test system: K-562 leukemia
[21] = test system: KM12 colon
[22] = test system: LOX IMVI melanoma
[23] = test system: M14 melanoma
[24] = test system: MALME-3M melanoma
[25] = test system: MCF7 breast
[26] = test system: MDA-MB-231 breast
[27] = test system: MDA-MB-435
[28] = test system: MDA-N
[29] = test system: MOLT-4 leukemia
[30] = test system: NCI-H226 lung
[31] = test system: NCI-H23 lung
[32] = test system: NCI-H460 lung
[33] = test system: NCI-H522 lung
[34] = test system: NCI/ADR-RES ovarian
[35] = test system: OVCAR-3 ovarian
[36] = test system: OVCAR-4 ovarian
[37] = test system: OVCAR-5 ovarian
[38] = test system: OVCAR-8 ovarian
[39] = test system: PC-3 prostate
[40] = test system: RPMI-8226 leukemia
[41] = test system: RXF 393 renal
[42] = test system: SF-268 CNS
[43] = test system: SF-295 CNS
[44] = test system: SF-539 CNS
[45] = test system: SK-MEL-2 melanoma
[46] = test system: SK-MEL-28 melanoma
[47] = test system: SK-MEL-5 melanoma
[48] = test system: SK-OV-3 ovarian
[49] = test system: SN12C renal
[50] = test system: SNB-19 CNS
[51] = test system: SNB-75 CNS
[52] = test system: SR leukemia
[53] = test system: SW-620 colon
[54] = test system: T-47D breast
[55] = test system: TK-10 renal
[56] = test system: U251 CNS
[57] = test system: UACC-257 melanoma
[58] = test system: UACC-62 melanoma
[59] = test system: UO-31 renal

## CCOC(=O)/C=C(\C(=O)OCC)n1ccc(=O)n(Cc2cnnn2COCCOC(C)=O)c1=O
[1]
  TGI: 15.3 µM
[2]
  TGI: 41.3 µM
[3]
  TGI: 43.4 µM
[4]
  TGI: 10.2 µM
[5]
  TGI: 22.3 µM
[6]
  TGI: 7.62 µM
[7]
  TGI: 4.53 µM
[8]
  TGI: 4.36 µM
[9]
  TGI: 37.7 µM
[10]
  TGI: 32.6 µM
[11]
  TGI: 33.4 µM
[12]
  TGI: 41.7 µM
[13]
  TGI: > 41.3 µM
[14]
  TGI: 2.04 µM
[15]
  TGI: 38.5 µM
[16]
  TGI: 2.16 µM
[17]
  TGI: 61.6 µM
[18]
  TGI: 28.1 µM
[19]
  TGI: 36.7 µM
[20]
  TGI: > 100 µM
[21]
  TGI: 32.1 µM
[22]
  TGI: > 40.7 µM
[23]
  TGI: 31.7 µM
[24]
  TGI: 4.34 µM
[25]
  TGI: 21.4 µM
[26]
  TGI: 35 µM
[27]
  TGI: 22.5 µM
[28]
  TGI: 33 µM
[29]
  TGI: 10.3 µM
[30]
  TGI: 43.2 µM
[31]
  TGI: 33.1 µM
[32]
  TGI: 34.1 µM
[33]
  TGI: 3.53 µM
[34]
  TGI: 58.7 µM
[35]
  TGI: 25.1 µM
[36]
  TGI: 54.8 µM
[37]
  TGI: 32 µM
[38]
  TGI: 27.3 µM
[39]
  TGI: 33.7 µM
[40]
  TGI: > 42 µM
[41]
  TGI: 14.5 µM
[42]
  TGI: 36.4 µM
[43]
  TGI: > 66.6 µM
[44]
  TGI: 5.66 µM
[45]
  TGI: 38.5 µM
[46]
  TGI: 25.2 µM
[47]
  TGI: 54.3 µM
[48]
  TGI: > 100 µM
[49]
  TGI: 36.2 µM
[50]
  TGI: > 66.4 µM
[51]
  TGI: 40.1 µM
[52]
  TGI: > 31.2 µM
[53]
  TGI: 5.93 µM
[54]
  TGI: 27.5 µM
[55]
  TGI: 12.6 µM
[56]
  TGI: 32.6 µM
[57]
  TGI: 30.8 µM
[58]
  TGI: 31 µM
[59]
  TGI: 30.5 µM

## C=CN1CCN(c2ccccc2)P1(=O)Oc1ccccc1 (stereo not drawn)
[1]
  TGI: > 100 µM
[2]
  TGI: > 100 µM
[3]
  TGI: > 100 µM
[4]
  TGI: > 100 µM
[5]
  TGI: > 100 µM
[6]
  TGI: > 100 µM
[7]
  TGI: > 100 µM
[8]
  TGI: > 100 µM
[9]
  TGI: > 100 µM
[10]
  TGI: > 100 µM
[11]
  TGI: > 100 µM
[12]
  TGI: > 100 µM
[13]
  TGI: > 100 µM
[14]
  TGI: > 100 µM
[15]
  TGI: > 100 µM
[16]
  TGI: > 100 µM
[17]
  TGI: > 100 µM
[18]
  TGI: > 100 µM
[19]
  TGI: > 100 µM
[20]
  TGI: > 100 µM
[21]
  TGI: > 100 µM
[22]
  TGI: > 100 µM
[23]
  TGI: > 100 µM
[24]
  TGI: > 100 µM
[25]
  TGI: > 100 µM
[26]
  TGI: > 100 µM
[27]
  TGI: > 100 µM
[28]
  TGI: > 100 µM
[29]
  TGI: > 100 µM
[30]
  TGI: > 100 µM
[31]
  TGI: > 100 µM
[32]
  TGI: > 100 µM
[33]
  TGI: > 100 µM
[34]
  TGI: > 100 µM
[35]
  TGI: > 100 µM
[36]
  TGI: > 100 µM
[37]
  TGI: > 100 µM
[38]
  TGI: > 100 µM
[39]
  TGI: > 100 µM
[40]
  TGI: > 100 µM
[41]
  TGI: > 100 µM
[42]
  TGI: > 100 µM
[43]
  TGI: > 100 µM
[44]
  TGI: > 100 µM
[45]
  TGI: > 100 µM
[46]
  TGI: > 100 µM
[47]
  TGI: > 100 µM
[48]
  TGI: > 100 µM
[49]
  TGI: > 100 µM
[50]
  TGI: > 100 µM
[51]
  TGI: > 100 µM
[52]
  TGI: > 100 µM
[53]
  TGI: > 100 µM
[54]
  TGI: > 100 µM
[55]
  TGI: > 100 µM
[56]
  TGI: > 100 µM
[57]
  TGI: > 100 µM
[58]
  TGI: > 100 µM
[59]
  TGI: 92.8 µM
